Assay results published in patent US20250326799A1, “AGENTS INDUCING VASCULARISATION” (Coegin Pharma AB, priority 2022, published 2025).
“Also recorded” adds a separate entry of the source.

How the values were obtained:
[1] = tested on: human coronary artery smooth muscle cells (HCASMCs); assay: BrdU cell proliferation in HCASMCs; format: cell-based; settings: for vascular smooth muscle cell proliferation (DNA synthesis, uptake of BrdU, O.D. 450 nm): 10 nM, 100 nM, 1000 nM, compared to control; for smooth muscle cell proliferation (BrdU incorporation): addition of the peptide
Experimental: Cell proliferation was evaluated with BrdU Cell Proliferation Elisa Kit (Abcam, UK). After incubation at 37° C. overnight with respective complete medium, for NRP-1 knock down-relative experiments, HUVECs and HCASMCs on 96-well plates were transfected with siRNA/siRNA-NC directly; for test polypeptide stimulations, HUVECs and HCASMCs were starved with low-serum condition for additional 24 hours and 48 hours before treatments. At 32 hours after transfection or polypeptide stimulations, cells were cultured with BrdU reagent for another 16 hours to determine cell proliferation. Subsequent steps were performed as manufacturer's instructions and data were read by Wallac 1420 Victor 2 (Perkin Elmer, USA).
The effect of FOL-026 peptide treatment on smooth muscle cell proliferation (FIG. 25a) and apoptosis (FIG. 25c) induced with low-oxygen condition was evaluated with the uptake of BrdU (n=10 per group) and active caspase-3/-7 (n=6-8 per group) separately. H2O2 measurement (FIG. 25b) of smooth muscle cells pre-incubated with FOL-26 peptides after 50 ug/ml oxidized Low-density Lipoprotein (oxLDL) stimulation for 2 hours (n=6-7 per group). Representative images of scratch wound assay in vitro are shown (FIG. 26a) and the ability of wound healing (FIG. 26b) in human coronary smooth muscle cells (HCASMCs) treated with FOL-026 peptides was measured by image J software (n=10 per group). Scale bar=150 um. Data are presented as means±SEM and acquired from 3 to 4 independent replicate tests. *P<0.05, **P<0.01, ***P<0.001, ****P<0.0001 by one-way ANOVA and Dunnett's post-hoc test.
The effect of FOL-005 peptide on smooth muscle cell proliferation (FIG. 30a) was determined with BrdU incorporation in peptide-treated human coronary smooth muscle cells (HCASMCs). Scratch wound assay (FIG. 30b) of HCASMCs incubated with FOL-005 peptides for 5 hours was measured by image J software (n=10-12 per group) and representative pictures of smooth muscle cell migration into an in vitro scratch injury were shown (FIG. 30c). Scale bar=150 um.

[2] = tested on: Human umbilical cord endothelial cells (HUVECs); assay: Endothelial tube formation on Geltrex matrix; format: cell-based; settings: for tube formation (total length, master segments, branching, segments length): HUVECs treated with peptide; for endothelial tube formation after NRP-1 knock-down / endothelial tube formation: HUVECs; for endothelial tube formation after NRP-1 knock-down: siRNA-NC or siNRP-1 group, then rising dose of peptide; for endothelial tube formation: 10 nM, 100 nM, 1000 nM, compared to control
Experimental: Cells were transfected for 48 hours or performed with 0.5% supplement starvation for 24 hours on 6-well plates as described above and dissociated by Accutase (Gibco, USA) to obtain cell suspension. Geltrex reduced growth factor basement membrane matrix ((Invitrogen, CA, USA) was thawed at 4° C. overnight and added into a 96-well plate (50 µl/well) next. The coated 96-well plate was placed in the incubator more than 30 mins for further use and the cell suspension was seeded into it at a density of 1.5 x 10^4/well. For NRP-1 silencing experiments, cells were cultured with complete medium. For polypeptide treatment experiments, cells were stimulated with complete medium plus the different concentration of polypeptide. For NRP-1 rescued experiments, cells transfected with siRNA were cultured with complete medium and NRP-1 stimulations. After a 24-hour incubation, images were recorded by an inverted microscope (Nikon, Eclipse TE2000-U, Japan) and the sum length of master segments of vessels in each image were quantified using Angiogenesis Analyzer plug-in ImageJ software program (pixel/unit). Data were analyzed with photographs from 8-14 wells per condition.
Human umbilical cord endothelial cells were first treated with a scramble non-coding siRNA (NC) or siRNA for NRP-1, subsequently treated with FOL26 in concentrations of 10 nM, 100 nM, and 1000 nM, and endothelial tube formation and the total master segemnts were measured using ImageJ. gene expression of PECAM-1 (CD31) analyzed.
Quantified measurement of total length (FIG. 20b), total master segments length (FIG. 20c), total branching length (FIG. 20d) and total segments length (FIG. 20e) were performed to evaluate angiogenesis in vitro (n=7 per group for FIG. 29 b-e). The quantification of vessel density was assessed with CD31+ positive area (FIG. 21a, n=13 per group). Western blot analysis of phosphorylated AKT (pAKT-T308), AKT, phosphorylated ERK1/2 (p-ERK1/2) and ERK1/2 in endothelial cells stimulated with FOL-26 peptides for 48 hours (FIG. 21b). Quantification of phosphorylation intensities normalized to respective total expressions (FIG. 21c-d, n=3 per group).
Tube formation with rising dose of FOL-026 peptide treatment in siRNA-NC or siNRP-1 group (FIG. 24a) and total length (FIG. 24b), total master segments length (FIG. 24c), total branching length (FIG. 24d) and total segments length (FIG. 24e) was calculated using Angiogenesis Analyzer plug-in ImageJ (n=7-12 per group). Scale bar=150 um. Data are presented as means±SEM and acquired from 3 to 4 independent replicate tests. *P<0.05, **P<0.01, ***P<0.001, ****P<0.0001 by two-way ANOVA followed with Sidak's and Dunnett's multiple comparisons test.
Quantified measurement of total master segments length FIG. 31b was used to evaluate angiogenesis in vitro (n=7 per group). Scale bar=150 um.

| Sequence | vascular smooth muscle cell proliferation (DNA synthesis, uptake of BrdU, O.D. 450 nm) ([1]; listed as FOL26) | smooth muscle cell proliferation (BrdU incorporation) [1] | tube formation (total length, master segments, branching, segments length) [2] | endothelial tube formation after NRP-1 knock-down [2] | endothelial tube formation after NRP-1 knock-down ([2]; listed as FOL26) | endothelial tube formation ([2]; listed as FOL26) | vascular smooth muscle cell proliferation (DNA synthesis, uptake of BrdU, O.D. 450 nm) [1] | endothelial tube formation [2] |
| --- | --- | --- | --- | --- | --- | --- | --- | --- |
| VDTYDGGISVVYGLR [FOL-026] | significant increase in proliferation; also recorded: increase in O.D. (450 nm) | induces smooth muscle cell proliferation | positive effect | induce tube formation | increased tube formation compared to control in a NRP-1 dependent way | significantly increased tube formation; also recorded: increased tube formation compared to control | – | – |
| AEIDSIELSYGIK [FOL56] | – | – | – | – | – | – | significant increase in proliferation; also recorded: increases proliferation at all concentrations | significantly increased tube formation; also recorded: increased tube formation at all concentrations |
| VDTYDGDISVVYGLR [FOL-005] | – | increases | increases the tube formation | – | – | – | – | – |
